According to US20250051324A1, “PARP INHIBITOR, PHARMACEUTICAL COMPOSITION COMPRISING SAME, AND USE THEREOF” (KEYTHERA (SUZHOU) BIO-PHARMACEUTICALS CO., LIMITED, priority 2021, published 2025):

System: MDA-MB-436 breast cancer cells
Experiment: Cell proliferation assay, MDA-MB-436
Assay type: cell-based
Conditions: Homo sapiens, MDA-MB-436, 168 h; proliferation, 7 days; read-out: MDA-MB-436 Cell IC50
Experimental: Experimental Materials: MDA-MB-436 or UWB1.289 cell lines were purchased from Cobioer Biosciences Co. Ltd. (Nanjing, China). The STR identification results were a complete match, and mycoplasma testing was negative. MDA-MB-436 cells were cultured in DMEM complete medium containing 10% fetal bovine serum, 1% penicillin-streptomycin, 1% insulin, and 16 μg/mL glutathione; UWB1.289 cells were cultured in RMPI1640 complete medium containing 10% fetal bovine serum and 1% penicillin-streptomycin.
1. MDA-MB-436 or UWB1.289 cells were cultured in the aforementioned medium (culture conditions: 37° C., 5.0% CO2 in air) until they reached the logarithmic growth phase. The cells were then digested with trypsin containing 0.25% EDTA, centrifuged at 1000 rpm, and the supernatant was discarded. Cell culture medium was added, and the cell suspension was adjusted to 2×10^4/mL after counting. 135 μL of the cell suspension per well was taken and cultured in a 96-well cell culture plate for 16 hours (culture conditions: 37° C., 5.0% CO2 in air).
2. The test compounds, stored at a concentration of 10 mM, were diluted 2.5 times with DMSO and then serially diluted in a 1:3 gradient (9 gradients). The gradient-diluted samples were further diluted 40 times with serum-free medium, and 15 μL of each was added to the 96-well cell culture plate. The positive control group received serum-free medium containing the same concentration of DMSO, and the negative control group received medium without cells. The cells were then cultured for an additional 7 days.
3. After the culture period, the cell culture plate was placed at room temperature for 30 minutes. Then, 100 μL of CellCounting-Lite 2.0 reagent (Vazyme, #DD1101) was added to each well, mixed thoroughly, and incubated in the dark at room temperature for 10 minutes. The luminescence signal was read using a Synergy HTX multi-mode reader.
(§1) 4. Data analysis was performed using GraphPad Prism 8.0 software. The inhibition rate (%) was calculated as 100*(average luminescence signal of the positive control group−luminescence signal of the compound)/(average luminescence signal of the positive control group−average luminescence signal of the negative control group). The IC50 value was obtained by plotting the logarithm of the compound concentration against the percentage inhibition rate.
In the case of `CNC(=O)c1ccc(N2CCN(Cc3cnc4c(C)c(C(F)(F)F)c(=O)[nH]c4c3)CC2CC#N)cn1` (stereo not shown) [Compound 73, 5-(2-(cyanomethyl)-4-((8-methyl-6-oxo-7-(trifluoromethyl)-5,6-dihydro-1,5-naphthyridin-3-yl)methyl)piperazin-1-yl)-N-methylpicolinamide], the IC50 is reported as 14.5 nM.
`CNC(=O)c1ccc(C2=CCN(Cc3cnc4c(C)c(C(F)(F)F)c(=O)[nH]c4c3)CC2C)cn1` (stereo not shown) [Compound 80, N,3′-dimethyl-1′-((8-methyl-6-oxo-7-(trifluoromethyl)-5,6-dihydro-1,5-naphthyridin-3-yl)methyl)-1′,2′,3′,6′-tetrahydro-[3,4′-bipyridine]-6-carboxamide] gave an IC50 of 13.9 nM.
`CNC(=O)c1ccc(C2=C(C)CN(Cc3cnc4c(C)c(C(F)(F)F)c(=O)[nH]c4c3)CC2)cn1` [Compound 81, N,5′-dimethyl-1′-((8-methyl-6-oxo-7-(trifluoromethyl)-5,6-dihydro-1,5-naphthyridin-3-yl)methyl)-1′,2′,3′,6′-tetrahydro-[3,4′-bipyridine]-6-carboxamide] showed an IC50 of 13.2 nM.
For `CNC(=O)c1ccc(C2=CCN(Cc3cnc4c(C)c(C(F)(F)F)c(=O)[nH]c4c3)CC2)nc1` [Compound 82, N-methyl-1′-((8-methyl-6-oxo-7-(trifluoromethyl)-5,6-dihydro-1,5-naphthyridin-3-yl)methyl)-1′,2′,3′,6′-tetrahydro-[2,4′-bipyridine]-5-carboxamide], the IC50 was 5.83 nM.
Work on `CNC(=O)c1ccc(N2CCN(Cc3cnc4c(C)c(C(F)(F)F)c(=O)[nH]c4c3)C[C@H]2C#N)cn1` [Compound 86, (S)-5-(2-cyano-4-((8-methyl-6-oxo-7-(trifluoromethyl)-5,6-dihydro-1,5-naphthyridin-3-yl)methyl)piperazin-1-yl)-N-methylpicolinamide] yielded an IC50 of 14.8 nM.
In the case of `CNC(=O)c1ccc(N2CCN(Cc3ccc4c(F)c(C)c(=O)[nH]c4c3)CC2)cn1` [Compound 94, 5-(4-((4-fluoro-3-methyl-2-oxo-1,2-dihydroquinolin-7-yl)methyl)piperazin-1-yl)-N-methylpicolinamide], the IC50 is reported as 5.69 nM.
`[2H]C([2H])([2H])NC(=O)c1ccc(N2CCN(Cc3cnc4c(C)c(C(F)(F)F)c(=O)[nH]c4c3)CC2)cn1` [Compound 95, N-(methyl-ds)-5-(4-((8-methyl-6-oxo-7-(trifluoromethyl)-5,6-dihydro-1,5-naphthyridin-3-yl)methyl)piperazin-1-yl)picolinamide] gave an IC50 of 2.13 nM.
For `Cc1c(C(F)(F)F)c(=O)[nH]c2cc(CN3CCN(c4ccc(C(=O)NCCO)nc4)CC3)cnc12` [Compound 96, N-(2-hydroxyethyl)-5-(4-((8-methyl-6-oxo-7-(trifluoromethyl)-5,6-dihydro-1,5-naphthyridin-3-yl)methyl)piperazin-1-yl)picolinamide], the IC50 was 9.34 nM.
For `Cc1c(C(F)(F)F)c(=O)[nH]c2cc(CN3CCN(c4ccc(C(=O)NCC(F)(F)F)nc4)CC3)cnc12` [Compound 97, 5-(4-((8-methyl-6-oxo-7-(trifluoromethyl)-5,6-dihydro-1,5-naphthyridin-3-yl)methyl)piperazin-1-yl)-N-(2,2,2-trifluoroethyl)picolinamide], the IC50 was 2.12 nM.
For `CCNC(=O)c1ccc(N2CCN(Cc3cnc4c(C)c(C(F)(F)F)c(=O)[nH]c4c3)CC2)cn1` [Compound 98, N-ethyl-5-(4-((8-methyl-6-oxo-7-(trifluoromethyl)-5,6-dihydro-1,5-naphthyridin-3-yl)methyl)piperazin-1-yl)picolinamide], the IC50 was 1.22 nM.
`CNC(=O)c1ccc(N2CCN(Cc3cnc4c(C)c(C(F)(F)F)c(=O)[nH]c4c3F)CC2)cn1` [Compound 101, 5-(4-((4-fluoro-8-methyl-6-oxo-7-(trifluoromethyl)-5,6-dihydro-1,5-naphthyridin-3-yl)methyl)piperazin-1-yl)-N-methylpicolinamide] showed an IC50 of 8.99 nM.
`CNC(=O)c1ccc(N2CCN(Cc3cnc4c(F)c(C)c(=O)[nH]c4c3)CC2)cn1` [Compound 103, 5-(4-((8-fluoro-7-methyl-6-oxo-5,6-dihydro-1,5-naphthyridin-3-yl)methyl)piperazin-1-yl)-N-methylpicolinamide] gave an IC50 of 3.76 nM.
`CNC(=O)c1ccc(N2CCN(Cc3cnc4c(C)c(C(F)F)c(=O)[nH]c4c3)[C@H](C)C2)cn1` [Compound 104, (R)-5-(4-((7-(difluoromethyl)-8-methyl-6-oxo-5,6-dihydro-1,5-naphthyridin-3-yl)methyl)-3-methylpiperazin-1-yl)-N-methylpicolinamide] showed an IC50 of 6.5 nM.
With `CNC(=O)c1ccc(N2CCN(Cc3cnc4c(C)c(C(F)F)c(=O)[nH]c4c3)C[C@H]2C)cn1` [Compound 105, (R)-5-(4-((7-(difluoromethyl)-8-methyl-6-oxo-5,6-dihydro-1,5-naphthyridin-3-yl)methyl)-2-methylpiperazin-1-yl)-N-methylpicolinamide] the IC50 was 4.93 nM.
With `CNC(=O)c1ccc(C2=CCN(Cc3cnc4c(C)c(C(F)F)c(=O)[nH]c4c3)CC2)cn1` [Compound 106, 1′-((7-(difluoromethyl)-8-methyl-6-oxo-5,6-dihydro-1,5-naphthyridin-3-yl)methyl)-N-methyl-1′,2′,3′,6′-tetrahydro-[3,4′-bipyridine]-6-carboxamide] the IC50 was 0.78 nM.

System: not listed separately
Experiment: Evaluation of pharmacokinetics in mice
Conditions: male, ICR (CD1), mouse, plasma, po, 10 mg/kg
Experimental: Test Objective: The pharmacokinetics of the example compounds of the present application were tested in mice. By measuring the drug concentration in mouse plasma, the pharmacokinetic behavior of the compounds of the present invention was studied to evaluate their pharmacokinetic characteristics.
Test Animals: 6-8 Week Old Male ICR (CD1) Mice
Oral Gavage Drug Preparation: An appropriate amount of the test compound was first weighed and dissolved in DMSO (Macklin cas: 67-68-5) to prepare a 20 mg/mL solution. Then, 75 μL of this solution was added to 150 μL of Solutol (Sigma cas: 70142-34-6), followed by 1.275 mL of 20% Captisol (Selleck cas: 182410-00-0), resulting in a final drug concentration of 1 mg/mL.
Intravenous Injection Drug Preparation: An appropriate amount of the test compound was first weighed and dissolved in DMSO (Macklin cas: 67-68-5) to prepare a 30 mg/mL solution. Then, 15 μL of this solution was added to 150 μL of Solutol (Sigma cas: 70142-34-6), followed by 1.335 mL of 20% Captisol (Selleck cas: 182410-00-0), resulting in a final drug concentration of 0.3 mg/mL.
Procedures: The mice were fasted overnight with free access to water before the experiment. Food was restored two hours after dosing. Blood samples were collected at different time points after intravenous injection or oral gavage of the test compound in mice, and the compound concentration in plasma was measured. Approximately 50 μL of blood was collected from each animal using a capillary sampling tube via the orbital venous plexus, with heparin sodium as an anticoagulant. Blood samples were placed on ice, centrifuged at 3500 r/min for 10 minutes to separate the plasma, and 20 μL of the collected plasma was added to 200 μL of acetonitrile (Merck cas: 75-05-8) containing 200 nM dexamethasone (Selleck cas: 50-02-2) as an internal standard. The mixture was centrifuged at 8000 r/min for 20 minutes. After centrifugation, 150 μL of the supernatant was transferred to a new centrifuge tube, and 150 μL of 0.1% formic acid (Fisher cas: 207868) was added. The mixture was mixed well, and 5 μL of the sample was subjected to quantitative analysis by liquid chromatography-mass spectrometry (Q-TOF LC/MS).
The test compound was serially diluted with DMSO to cover the compound concentrations expected in plasma samples to be tested, with a blank sample (containing only DMSO) included.
2 μL of each diluted sample at various concentrations was added to 18 μL of normal ICR mouse plasma, mixed, and then added to 200 μL of acetonitrile (Merck cas: 75-05-8) containing 200 nM dexamethasone (Selleck cas: 50-02-2) as an internal standard. The mixture was centrifuged for 20 minutes (8000 r/min). 150 μL of the supernatant was transferred to a new centrifuge tube, and 150 μL of 0.1% formic acid (Fisher cas: 207868) was added. The mixture was mixed well, and 5 μL of the sample was subjected to quantitative analysis by liquid chromatography-mass spectrometry (Q-TOF LC/MS).
The final standard curve was plotted using the concentration of the test compound after dilution on the abscissa and the ratio of the signal of the compound to the internal standard (dexamethasone) on the ordinate. The standard curve was generated using linear regression with GraphPad Prism 8 software (R2>0.9900).
Data Analysis: calculation of pharmacokinetic parameters: the concentration of the test compound in plasma at different time points after intravenous injection or oral gavage in ICR mice was determined based on the above standard curve, and pharmacokinetic parameters (T1/2, Cmax, AUC, etc.) were calculated using the Phoenix WinNonlin 8.1 non-compartmental analysis model.
Molecule `[2H]C([2H])([2H])NC(=O)c1ccc(N2CCN(Cc3cnc4c(C)c(C(F)(F)F)c(=O)[nH]c4c3)CC2)cn1` [Compound 95, N-(methyl-ds)-5-(4-((8-methyl-6-oxo-7-(trifluoromethyl)-5,6-dihydro-1,5-naphthyridin-3-yl)methyl)piperazin-1-yl)picolinamide] has an AUC(0-inf) of 2050 µg·h/mL, a Cmax of 37500 ng/mL and a half-life of 38 h.

Target: PARP1 (Homo sapiens (Human), UniProt P09874)
Sequence (P09874 whole entry): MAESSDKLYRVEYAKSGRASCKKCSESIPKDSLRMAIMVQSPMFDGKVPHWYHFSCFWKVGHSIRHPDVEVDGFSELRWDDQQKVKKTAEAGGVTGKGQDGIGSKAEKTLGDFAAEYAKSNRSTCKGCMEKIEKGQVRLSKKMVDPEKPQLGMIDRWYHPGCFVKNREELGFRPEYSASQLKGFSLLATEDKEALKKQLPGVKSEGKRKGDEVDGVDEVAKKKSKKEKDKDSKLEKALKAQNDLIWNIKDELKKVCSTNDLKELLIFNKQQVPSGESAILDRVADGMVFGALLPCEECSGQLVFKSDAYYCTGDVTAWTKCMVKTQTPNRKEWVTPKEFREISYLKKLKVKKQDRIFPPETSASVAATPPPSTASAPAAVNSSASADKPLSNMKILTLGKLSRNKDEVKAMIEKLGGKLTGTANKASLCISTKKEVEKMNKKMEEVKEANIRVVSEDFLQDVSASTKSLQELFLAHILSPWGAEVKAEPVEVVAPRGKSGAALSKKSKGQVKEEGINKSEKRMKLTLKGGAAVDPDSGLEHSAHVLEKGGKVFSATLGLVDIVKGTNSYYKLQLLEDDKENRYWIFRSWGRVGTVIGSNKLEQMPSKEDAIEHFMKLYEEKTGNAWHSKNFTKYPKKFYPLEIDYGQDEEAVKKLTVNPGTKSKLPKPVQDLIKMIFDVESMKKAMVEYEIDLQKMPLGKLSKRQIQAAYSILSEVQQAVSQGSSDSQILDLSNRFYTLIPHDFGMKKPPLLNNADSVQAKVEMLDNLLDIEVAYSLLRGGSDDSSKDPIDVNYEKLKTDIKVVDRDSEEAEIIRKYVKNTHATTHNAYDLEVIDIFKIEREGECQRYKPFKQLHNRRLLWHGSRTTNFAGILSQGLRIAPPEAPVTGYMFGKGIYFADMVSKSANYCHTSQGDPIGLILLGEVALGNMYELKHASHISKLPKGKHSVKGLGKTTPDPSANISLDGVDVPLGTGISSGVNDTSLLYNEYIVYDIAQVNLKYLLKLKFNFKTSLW
Experiment: PARP enzyme activity assay (PARP1 chemiluminescent assay kit)
Assay type: biochemical
Conditions: enzyme inhibitory activity, read-out: PARP-1 IC50
From the text: Experimental Materials: The PARP1 assay kit was purchased from BPS Bioscience, USA, specifically the 384-well chemiluminescent assay kit (Catalog No.: #80551).
Experimental Principle: PARP can catalyze the transfer of ADP-ribose residues from NAD+ to target substrates, thereby modifying proteins through ribosylation. This experiment measures PARP1 enzyme activity by detecting the poly(ADP-ribosylation) of histones by PARP1.
Preparation of Reagents and Test Compounds: The 10× assay buffer included in the kit was diluted to 1× with distilled water. The test compound (stock concentration of 10 mM) was diluted to 10 μM with a DMSO solution and then serially diluted in a 1:3 ratio. The serially diluted compounds were further diluted 10-fold with the 1× assay buffer.
Experimental Method: The procedure was carried out according to the kit's instructions:
1. The 5× histone mixture was diluted to 1× with PBS, and 25 μL was added to each well of a 384-well plate, incubating overnight at 4° C.
2. After incubation, 100 μL of PBST (0.05% Tween 20) was added to each well for washing, repeated three times. Then, 100 μL of blocking solution was added to each well and incubated at room temperature for 90 minutes.
3. After incubation, the wells were washed three times with PBST, and then 1.25 μL of 10× assay buffer, 1.25 μL of 10×PARP assay mixture, 2.5 μL of activation DNA (5×), and 7.5 μL of distilled water were added to each well.
4. […] The positive control group and the negative control group were added with 1× assay buffer containing the same concentration of DMSO.
5. Next, 10 μL of 2.5 ng/μL PARP1 enzyme was added to the test compound and positive control groups, while 10 μL of 1× assay buffer was added to the negative control group, and the mixture was incubated at room temperature for 60 minutes.
6. Streptavidin-HRP was diluted 1:50 with the blocking solution. After incubation, the plate was washed three times with PBST, and 25 μL of the diluted streptavidin-HRP solution was added to each well, incubating at room temperature for 30 minutes.
7. After incubation, the plate was washed three times with PBST, and 50 μL of the mixed substrate A and substrate B in equal volumes was added. The luminescence signal was immediately read on a Synergy HTX multi-mode reader.
as §1, with “8.” for “4.”, “%=100*(average” for “(%) was calculated as 100*(average”
`CNC(=O)c1ccc(N2CCN(Cc3cnc4c(C)c(C(F)(F)F)c(=O)[nH]c4c3)C(CC#N)C2)cn1` (stereo not shown) [Compound 3, 5-(3-(cyanomethyl)-4-((8-methyl-6-oxo-7-(trifluoromethyl)-5,6-dihydro-1,5-naphthyridin-3-yl)methyl)piperazin-1-yl)-N-methylpicolinamide] gave an IC50 of 1.53 nM.
For `CNC(=O)c1ccc(N2CCN(Cc3cnc4c(C)c(C(F)(F)F)c(=O)[nH]c4c3)C(CCO)C2)cn1` (stereo not shown) [Compound 5, 5-(3-(2-hydroxyethyl)-4-((8-methyl-6-oxo-7-(trifluoromethyl)-5,6-dihydro-1,5-naphthyridin-3-yl)methyl)piperazin-1-yl)-N-methylpicolinamide], the IC50 was 27.2 nM.
Molecule `CNC(=O)c1ccc(N2CCN(Cc3cnc4c(C)c(C(F)(F)F)c(=O)[nH]c4c3)C(CO)C2)cn1` (stereo not shown) [Compound 6, 5-(3-(hydroxymethyl)-4-((8-methyl-6-oxo-7-(trifluoromethyl)-5,6-dihydro-1,5-naphthyridin-3-yl)methyl)piperazin-1-yl)-N-methylpicolinamide] has an IC50 of 34.3 nM.
Molecule `CNC(=O)c1ccc(N2CC3CCC(C2)N3Cc2cnc3c(C)c(C(F)(F)F)c(=O)[nH]c3c2)cn1` [Compound 12, N-methyl-5-(8-((8-methyl-6-oxo-7-(trifluoromethyl)-5,6-dihydro-1,5-naphthyridin-3-yl)methyl)-3,8-diazabicyclo[3.2.1]octan-3-yl)picolinamide] has an IC50 of 2.25 nM.
